Data taken from ChEMBL document CHEMBL1148021, “(Arylpiperazinyl)cyclohexylsufonamides: discovery of alpha(1a/1d)-selective adrenergic receptor antagonists for the treatment of Benign Prostatic Hyperplasia/Lower Urinary Tract Symptoms (BPH/LUTS)” (Bioorg Med Chem Lett, 2007).

What was measured:
D(2) dopamine receptor = D(2) dopamine receptor (Homo sapiens, UniProt P14416); test: Binding affinity to human dopamine D2 receptor
[1] = target: T1, Alpha-1B adrenergic receptor (Homo sapiens, UniProt P35368); test: Binding affinity to human cloned adrenergic alpha-1B receptor
T1 sequence (P35368 whole entry): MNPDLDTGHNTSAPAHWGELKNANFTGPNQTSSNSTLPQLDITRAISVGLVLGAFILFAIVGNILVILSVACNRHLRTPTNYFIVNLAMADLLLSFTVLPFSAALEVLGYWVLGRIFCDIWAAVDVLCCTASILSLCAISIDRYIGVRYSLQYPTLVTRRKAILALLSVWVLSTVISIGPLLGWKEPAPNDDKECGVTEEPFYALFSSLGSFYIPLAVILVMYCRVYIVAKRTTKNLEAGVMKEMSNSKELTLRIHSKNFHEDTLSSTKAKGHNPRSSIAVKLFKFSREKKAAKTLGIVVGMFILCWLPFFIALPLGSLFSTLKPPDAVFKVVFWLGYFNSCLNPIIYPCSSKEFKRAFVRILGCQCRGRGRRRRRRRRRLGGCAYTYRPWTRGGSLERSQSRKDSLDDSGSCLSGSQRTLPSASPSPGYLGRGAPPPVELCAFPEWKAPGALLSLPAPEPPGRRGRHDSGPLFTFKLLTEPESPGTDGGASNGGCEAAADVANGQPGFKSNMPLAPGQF

[2] = target: T2, Alpha-1D adrenergic receptor (Homo sapiens, UniProt P25100); test: Binding affinity to human cloned adrenergic Alpha-1D receptor
T2 sequence (P25100 whole entry): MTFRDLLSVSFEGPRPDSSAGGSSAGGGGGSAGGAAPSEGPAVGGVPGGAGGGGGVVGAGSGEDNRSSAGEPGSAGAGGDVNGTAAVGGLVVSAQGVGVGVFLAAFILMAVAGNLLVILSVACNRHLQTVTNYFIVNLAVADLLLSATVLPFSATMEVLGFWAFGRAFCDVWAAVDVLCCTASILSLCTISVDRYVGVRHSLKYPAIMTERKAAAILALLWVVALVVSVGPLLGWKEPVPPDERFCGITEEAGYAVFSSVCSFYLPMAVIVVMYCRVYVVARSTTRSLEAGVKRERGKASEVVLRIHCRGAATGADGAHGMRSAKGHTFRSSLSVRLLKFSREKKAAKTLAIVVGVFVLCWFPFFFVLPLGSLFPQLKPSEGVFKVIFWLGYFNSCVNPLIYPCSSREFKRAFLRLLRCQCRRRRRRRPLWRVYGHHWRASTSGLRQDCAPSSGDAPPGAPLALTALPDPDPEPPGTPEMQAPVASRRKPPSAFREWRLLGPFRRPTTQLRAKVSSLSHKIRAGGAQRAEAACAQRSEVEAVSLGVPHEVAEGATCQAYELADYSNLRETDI

[3] = target: T3, Alpha-1A adrenergic receptor (Homo sapiens, UniProt P35348); test: Binding affinity to human cloned adrenergic alpha-1A receptor
T3 sequence (P35348 whole entry): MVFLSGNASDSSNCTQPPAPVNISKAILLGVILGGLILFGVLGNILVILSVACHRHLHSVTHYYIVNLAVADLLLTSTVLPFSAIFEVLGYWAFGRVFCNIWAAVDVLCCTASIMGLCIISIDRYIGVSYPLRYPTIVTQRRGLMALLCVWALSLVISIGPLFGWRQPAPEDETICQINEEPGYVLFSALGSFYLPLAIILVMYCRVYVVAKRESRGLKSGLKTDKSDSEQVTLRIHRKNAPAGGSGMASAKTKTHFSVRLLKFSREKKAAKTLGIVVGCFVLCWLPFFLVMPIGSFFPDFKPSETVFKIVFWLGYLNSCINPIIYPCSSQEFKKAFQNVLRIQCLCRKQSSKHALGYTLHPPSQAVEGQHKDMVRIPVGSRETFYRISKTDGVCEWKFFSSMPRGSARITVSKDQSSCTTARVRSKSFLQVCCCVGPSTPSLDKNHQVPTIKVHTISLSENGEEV

Sequence of D(2) dopamine receptor (P14416 whole entry): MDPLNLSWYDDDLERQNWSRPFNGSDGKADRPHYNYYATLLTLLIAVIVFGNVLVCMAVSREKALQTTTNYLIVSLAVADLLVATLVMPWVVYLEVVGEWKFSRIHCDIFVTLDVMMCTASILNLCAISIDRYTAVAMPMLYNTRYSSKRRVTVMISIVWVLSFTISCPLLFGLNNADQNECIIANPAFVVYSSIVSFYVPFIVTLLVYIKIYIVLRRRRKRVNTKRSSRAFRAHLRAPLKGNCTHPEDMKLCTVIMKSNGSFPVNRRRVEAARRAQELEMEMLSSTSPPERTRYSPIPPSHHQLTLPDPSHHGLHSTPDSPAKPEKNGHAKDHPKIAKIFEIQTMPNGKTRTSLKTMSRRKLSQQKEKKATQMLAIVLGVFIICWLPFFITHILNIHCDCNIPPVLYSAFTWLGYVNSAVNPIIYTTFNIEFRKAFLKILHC

Row | Structure (SMILES) | Ki (D(2) dopamine receptor) | Ki [1] | Ki [2] | Ki [3]
1 | CC(C)Oc1ccccc1N1CCN([C@H]2CC[C@@H](NS(=O)(=O)c3ccccc3[N+](=O)[O-])CC2)CC1 | 0.051 µM | – | – | –
2 | CC(C)Oc1ccccc1N1CCN([C@H]2CC[C@H](NS(=O)(=O)c3ccccc3[N+](=O)[O-])CC2)CC1 | 0.086 µM | – | – | –
3 | COc1ccncc1S(=O)(=O)N[C@H]1CC[C@@H](N2CCN(c3ccccc3OC(C)C)CC2)CC1 | 0.092 µM | – | – | –
4 | CC(C)Oc1ccccc1N1CCN([C@H]2CC[C@@H](NS(=O)(=O)c3cnc(Cl)c(Br)c3)CC2)CC1 | 0.061 µM | – | – | –
5 | CC(C)Oc1ccccc1N1CCN([C@H]2CC[C@@H](NS(=O)(=O)c3cccc(F)c3)CC2)CC1 | 0.074 µM | – | – | –
6 | CC(C)Oc1ccccc1N1CCN([C@H]2CC[C@H](NS(=O)(=O)c3cccc(F)c3)CC2)CC1 | 0.064 µM | – | – | –
7 | CC(C)Oc1ccccc1N1CCN([C@H]2CC[C@@H](NS(=O)(=O)c3cccc(Cl)c3F)CC2)CC1 | 0.198 µM | 0.12 µM | 0.0062 µM | –
8 | CC(C)Oc1ccccc1N1CCN([C@H]2CC[C@@H](NS(=O)(=O)c3ccc(Cl)cc3F)CC2)CC1 | 0.13 µM | – | – | –
9 | CC(C)Oc1ccccc1N1CCN([C@H]2CC[C@H](NS(=O)(=O)c3cccc(C(F)(F)F)c3)CC2)CC1 | 0.039 µM | – | – | –
10 | CC(C)Oc1ccccc1N1CCN([C@H]2CC[C@H](NS(=O)(=O)c3ccc(Cl)cc3F)CC2)CC1 | 0.042 µM | – | – | –
11 | COc1ccc(S(=O)(=O)N[C@H]2CC[C@@H](N3CCN(c4ccccc4OCC4CC4)CC3)CC2)cc1OC | 0.123 µM | 0.364 µM | 0.064 µM | 0.189 µM
12 | CC(C)Oc1ccccc1N1CCN([C@H]2CC[C@@H](NS(=O)(=O)c3cccc(C(F)(F)F)c3)CC2)CC1 | 0.118 µM | – | – | –
13 | COc1ccc(C)cc1S(=O)(=O)N[C@H]1CC[C@H](N2CCN(c3ccccc3OC(C)C)CC2)CC1 | 0.05 µM | – | – | –
14 | CC(C)Oc1ccccc1N1CCN([C@H]2CC[C@H](NS(=O)(=O)c3cnc(Cl)c(Br)c3)CC2)CC1 | 0.08 µM | – | – | –
15 | COc1ccc(F)cc1S(=O)(=O)N[C@H]1CC[C@@H](N2CCN(c3ccccc3OC(C)C)CC2)CC1 | 0.173 µM | – | – | –
16 | COc1ccc(Br)cc1S(=O)(=O)N[C@H]1CC[C@@H](N2CCN(c3ccccc3OC(C)C)CC2)CC1 | 0.037 µM | – | – | –
17 | COc1ccc(OC)c(S(=O)(=O)N[C@H]2CC[C@H](N3CCN(c4ccccc4OC(C)C)CC3)CC2)c1 | 0.062 µM | – | – | –
18 | COc1ccc(C(F)(F)F)cc1S(=O)(=O)N[C@H]1CC[C@@H](N2CCN(c3ccccc3OC(C)C)CC2)CC1 | 0.194 µM | – | – | –
19 | COc1ccc(C(F)(F)F)cc1S(=O)(=O)N[C@H]1CC[C@H](N2CCN(c3ccccc3OC(C)C)CC2)CC1 | 0.0019 µM | – | 0.015 µM | 0.025 µM

Row | Structure (SMILES) | Ki (D(2) dopamine receptor) | Ki [1] | Ki [2] | Ki [3]
20 | COc1ccc([N+](=O)[O-])cc1S(=O)(=O)N[C@H]1CC[C@H](N2CCN(c3ccccc3OC(C)C)CC2)CC1 | 0.018 µM | – | – | –
21 | Cc1ccc(S(=O)(=O)N[C@H]2CC[C@@H](N3CCN(c4ccccc4OC(C)C)CC3)CC2)cc1Cl | 0.06 µM | – | – | 0.011 µM
22 | COc1ccc(Cl)cc1S(=O)(=O)N[C@H]1CC[C@@H](N2CCN(c3ccccc3OCC3CC3)CC2)CC1 | 0.588 µM | 0.601 µM | 0.048 µM | 0.019 µM
23 | O=S(=O)(N[C@H]1CC[C@@H](N2CCN(c3ccccc3OCC3CC3)CC2)CC1)c1cc(Cl)ccc1F | 0.425 µM | 0.952 µM | 0.044 µM | 0.036 µM
24 | COc1ccc(Cl)cc1S(=O)(=O)N[C@H]1CC[C@H](N2CCN(c3ccccc3OC(C)C)CC2)CC1 | 0.078 µM | – | – | –
25 | Cc1ccc(S(=O)(=O)N[C@H]2CC[C@H](N3CCN(c4ccccc4OC(C)C)CC3)CC2)cc1Cl | 0.052 µM | – | – | –
26 | CC(C)Oc1ccccc1N1CCN([C@H]2CC[C@@H](NS(=O)(=O)Cc3ccccc3)CC2)CC1 | 0.024 µM | – | – | –
27 | CC(C)Oc1ccccc1N1CCN([C@H]2CC[C@H](NS(=O)(=O)Cc3ccccc3)CC2)CC1 | 0.071 µM | – | – | –
28 | CC(C)Oc1ccccc1N1CCN([C@H]2CC[C@H](NS(=O)(=O)c3ccccc3)CC2)CC1 | 0.034 µM | – | – | –
29 | CC(C)Oc1ccccc1N1CCN([C@H]2CC[C@@H](NS(=O)(=O)c3ccccc3C#N)CC2)CC1 | 0.055 µM | – | – | –
30 | CC(C)Oc1ccccc1N1CCN([C@H]2CC[C@H](NS(=O)(=O)c3ccccc3C#N)CC2)CC1 | 0.0024 µM | – | – | –
31 | CC(C)Oc1ccccc1N1CCN([C@H]2CC[C@H](NS(=O)(=O)c3ccccc3F)CC2)CC1 | 0.031 µM | – | – | –
32 | CC(C)Oc1ccccc1N1CCN([C@H]2CC[C@@H](NS(=O)(=O)c3cccnc3)CC2)CC1 | 0.015 µM | – | – | –
33 | CC(C)Oc1ccccc1N1CCN([C@H]2CC[C@@H](NS(=O)(=O)c3ccc(F)cc3)CC2)CC1 | 0.069 µM | – | – | –
34 | CC(C)Oc1ccccc1N1CCN([C@H]2CC[C@@H](NS(=O)(=O)c3ccc(S(C)(=O)=O)cc3)CC2)CC1 | 0.122 µM | – | – | –
35 | CC(C)Oc1ccccc1N1CCN([C@H]2CC[C@H](NS(=O)(=O)c3ccc(S(C)(=O)=O)cc3)CC2)CC1 | 0.014 µM | – | – | –
36 | COc1ccc(S(=O)(=O)N[C@H]2CC[C@H](N3CCN(c4ccccc4OC(C)C)CC3)CC2)cc1OC | 0.062 µM | – | – | –
37 | CC(C)Oc1ccccc1N1CCN([C@H]2CC[C@@H](NS(=O)(=O)c3ccc(OC(F)(F)F)cc3)CC2)CC1 | 0.43 µM | – | – | 0.017 µM
38 | COc1ccc(OC)c(S(=O)(=O)N[C@H]2CC[C@@H](N3CCN(c4ccccc4OC(C)C)CC3)CC2)c1 | 0.081 µM | 0.153 µM | 0.0051 µM | –

Row | Structure (SMILES) | Ki (D(2) dopamine receptor) | Ki [1] | Ki [2] | Ki [3]
39 | CC(C)Oc1ccccc1N1CCN([C@H]2CC[C@H](NS(=O)(=O)c3cccnc3)CC2)CC1 | 0.055 µM | – | – | –
40 | COc1ccncc1S(=O)(=O)N[C@H]1CC[C@H](N2CCN(c3ccccc3OC(C)C)CC2)CC1 | 0.043 µM | – | – | –
41 | CC(C)Oc1ccccc1N1CCN([C@H]2CC[C@@H](NS(=O)(=O)c3ccc(Cl)cc3Cl)CC2)CC1 | 0.042 µM | – | – | –
42 | CC(C)Oc1ccccc1N1CCN([C@H]2CC[C@@H](NS(=O)(=O)c3ccccc3)CC2)CC1 | 0.191 µM | – | – | –
43 | COc1ccc(F)cc1S(=O)(=O)N[C@H]1CC[C@H](N2CCN(c3ccccc3OC(C)C)CC2)CC1 | 0.139 µM | – | – | –
44 | CC(C)Oc1ccccc1N1CCN([C@H]2CC[C@H](NS(=O)(=O)c3ccc(OC(F)(F)F)cc3)CC2)CC1 | 0.058 µM | – | – | –
45 | CC(C)Oc1ccccc1N1CCN([C@H]2CC[C@H](NS(=O)(=O)c3ccc(Cl)cc3Cl)CC2)CC1 | 0.076 µM | – | – | –
46 | CC(C)Oc1ccccc1N1CCN([C@H]2CC[C@H](NS(=O)(=O)c3cccc(Cl)c3F)CC2)CC1 | 0.271 µM | – | – | –
47 | CC(C)Oc1ccccc1N1CCN([C@H]2CC[C@@H](NS(=O)(=O)c3cc(Cl)ccc3F)CC2)CC1 | 0.356 µM | 1.86 µM | 0.015 µM | 0.045 µM
48 | CC(C)Oc1ccccc1N1CCN([C@H]2CC[C@@H](NS(=O)(=O)c3ccccc3F)CC2)CC1 | 0.149 µM | – | 0.0024 µM | –
49 | CC(C)Oc1ccccc1N1CCN([C@H]2CC[C@H](NS(=O)(=O)c3ccc(F)cc3)CC2)CC1 | 0.027 µM | – | – | –
50 | COc1ccc(Br)cc1S(=O)(=O)N[C@H]1CC[C@H](N2CCN(c3ccccc3OC(C)C)CC2)CC1 | 0.036 µM | – | – | –
51 | COc1ccc([N+](=O)[O-])cc1S(=O)(=O)N[C@H]1CC[C@@H](N2CCN(c3ccccc3OC(C)C)CC2)CC1 | 0.045 µM | – | – | –
52 | COc1ccc(Cl)cc1S(=O)(=O)N[C@H]1CC[C@@H](N2CCN(c3ccccc3OC(C)C)CC2)CC1 (stereo in doubt; form 1) | 0.101 µM | – | – | 0.001 µM
53 | COc1ccc(S(=O)(=O)N[C@H]2CC[C@@H](N3CCN(c4ccccc4OC(C)C)CC3)CC2)cc1OC (stereo in doubt; form 1) | 0.094 µM | – | – | –
54 | COc1ccc(Cl)cc1S(=O)(=O)N[C@H]1CC[C@@H](N2CCN(c3ccccc3OC(C)C)CC2)CC1 (stereo in doubt; form 2) | 0.259 µM | 0.399 µM | – | 0.011 µM
55 | COc1ccc(S(=O)(=O)N[C@H]2CC[C@@H](N3CCN(c4ccccc4OC(C)C)CC3)CC2)cc1OC (stereo in doubt; form 2) | 0.81 µM | 0.112 µM | 0.019 µM | –
56 | CCOc1ccccc1OCCN[C@H](C)Cc1ccc(OC)c(S(N)(=O)=O)c1 [TAMSULOSIN] | – | 0.002 µM | 0.0002 µM | –
